Reference: US20250243196A1, “CITRON KINASE INHIBITORS” (The Cleveland Clinic Foundation, priority 2021, published 2025)

Experiments:
[1] = biological target: HIPK4 (Homo sapiens (Human), UniProt Q8NE63); assay: KinaseProfiler radiometric assay (15-003KP); type: biochemical; details: mean of at least two independent experiments
From the text: In another aspect, disclosed is a method of inhibiting citron kinase in a sample, comprising contacting the sample with a compound described herein (e.g., a compound of formula (I) or a pharmaceutically acceptable salt thereof), or a pharmaceutical composition described herein (e.g., a pharmaceutical composition comprising a compound of formula (I) or a pharmaceutically acceptable salt thereof), in an amount effective to inhibit citron kinase. In some embodiments, the step of contacting the sample with the compound comprises administering the compound to a subject (e.g., a subject) suffering from cancer. Methods of determining kinase inhibition are well known in the art. For example, kinase activity of an enzyme and the inhibitory capacity of a test compound can be determined by measuring enzyme specific phosphorylation of a substrate. Commercial assays and kits can be employed. For example, kinase inhibition can be determined using a radiometric binding assay, such as using KinaseProfiler™ technology (Eurofins Discovery). This assay method directly detects product formation without the use of modified substrates or coupling enzymes. […]
(§1) The effect of various compounds on the inhibition of other kinases has also been determined. Table 2 reports measured IC50 values; value units are nanomolar inhibition.

[2] = biological target: IKKβ (Homo sapiens (Human), UniProt O14920); assay: KinaseProfiler radiometric assay (14-485KP); type: biochemical; details: mean of at least two independent experiments
Chain of IKKβ (O14920 whole entry): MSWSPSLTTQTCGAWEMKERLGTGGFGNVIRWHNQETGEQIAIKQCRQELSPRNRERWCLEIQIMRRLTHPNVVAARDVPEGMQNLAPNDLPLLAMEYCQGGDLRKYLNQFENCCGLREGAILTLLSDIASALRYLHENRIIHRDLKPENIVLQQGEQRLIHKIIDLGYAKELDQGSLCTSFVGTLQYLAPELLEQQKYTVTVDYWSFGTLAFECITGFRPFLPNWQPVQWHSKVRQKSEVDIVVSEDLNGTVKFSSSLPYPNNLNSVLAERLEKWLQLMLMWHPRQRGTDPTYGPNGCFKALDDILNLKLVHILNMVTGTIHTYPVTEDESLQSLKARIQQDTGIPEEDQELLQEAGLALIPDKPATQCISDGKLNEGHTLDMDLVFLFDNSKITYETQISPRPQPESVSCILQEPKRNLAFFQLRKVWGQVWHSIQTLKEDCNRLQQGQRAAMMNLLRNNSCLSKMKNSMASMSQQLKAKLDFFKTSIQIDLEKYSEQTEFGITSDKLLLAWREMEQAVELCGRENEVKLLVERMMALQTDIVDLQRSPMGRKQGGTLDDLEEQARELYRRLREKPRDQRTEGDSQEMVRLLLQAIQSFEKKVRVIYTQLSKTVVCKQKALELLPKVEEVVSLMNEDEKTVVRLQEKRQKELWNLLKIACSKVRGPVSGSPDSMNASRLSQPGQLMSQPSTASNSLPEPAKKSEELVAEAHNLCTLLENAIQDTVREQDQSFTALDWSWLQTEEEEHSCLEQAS
From the text: In another aspect, disclosed is a method of inhibiting citron kinase in a sample, comprising contacting the sample with a compound described herein (e.g., a compound of formula (I) or a pharmaceutically acceptable salt thereof), or a pharmaceutical composition described herein (e.g., a pharmaceutical composition comprising a compound of formula (I) or a pharmaceutically acceptable salt thereof), in an amount effective to inhibit citron kinase. In some embodiments, the step of contacting the sample with the compound comprises administering the compound to a subject (e.g., a subject) suffering from cancer. Methods of determining kinase inhibition are well known in the art. For example, kinase activity of an enzyme and the inhibitory capacity of a test compound can be determined by measuring enzyme specific phosphorylation of a substrate. Commercial assays and kits can be employed. For example, kinase inhibition can be determined using a radiometric binding assay, such as using KinaseProfiler™ technology (Eurofins Discovery). This assay method directly detects product formation without the use of modified substrates or coupling enzymes. Test compounds are incubated with kinase, substrate, required cofactors and radioisotope labeled ATP. Following incubation, unreacted radioactive ATP is removed by washing and incorporation of the radiolabeled phosphate into the kinase substrate is assayed to detect phosphoryltransferase activity, which is directly proportional to the amount of phosphorylated substrate. Inhibition of the kinase by a kinase inhibitor prevents phosphorylation of the substrate and thereby limits the incorporation of radiolabeled phosphate. Such an assay is compatible with a microwell assay format, allowing simultaneous determination of IC50 of multiple compounds.
as §1

[3] = biological target: NanoLuc-CITK (full-length human CITK) (Homo sapiens (Human), UniProt O14578); assay: NanoBRET intracellular target engagement assay; type: cell-based
Chain of NanoLuc-CITK (full-length human CITK) (O14578 other isoform, or with tags, fused parts or gaps): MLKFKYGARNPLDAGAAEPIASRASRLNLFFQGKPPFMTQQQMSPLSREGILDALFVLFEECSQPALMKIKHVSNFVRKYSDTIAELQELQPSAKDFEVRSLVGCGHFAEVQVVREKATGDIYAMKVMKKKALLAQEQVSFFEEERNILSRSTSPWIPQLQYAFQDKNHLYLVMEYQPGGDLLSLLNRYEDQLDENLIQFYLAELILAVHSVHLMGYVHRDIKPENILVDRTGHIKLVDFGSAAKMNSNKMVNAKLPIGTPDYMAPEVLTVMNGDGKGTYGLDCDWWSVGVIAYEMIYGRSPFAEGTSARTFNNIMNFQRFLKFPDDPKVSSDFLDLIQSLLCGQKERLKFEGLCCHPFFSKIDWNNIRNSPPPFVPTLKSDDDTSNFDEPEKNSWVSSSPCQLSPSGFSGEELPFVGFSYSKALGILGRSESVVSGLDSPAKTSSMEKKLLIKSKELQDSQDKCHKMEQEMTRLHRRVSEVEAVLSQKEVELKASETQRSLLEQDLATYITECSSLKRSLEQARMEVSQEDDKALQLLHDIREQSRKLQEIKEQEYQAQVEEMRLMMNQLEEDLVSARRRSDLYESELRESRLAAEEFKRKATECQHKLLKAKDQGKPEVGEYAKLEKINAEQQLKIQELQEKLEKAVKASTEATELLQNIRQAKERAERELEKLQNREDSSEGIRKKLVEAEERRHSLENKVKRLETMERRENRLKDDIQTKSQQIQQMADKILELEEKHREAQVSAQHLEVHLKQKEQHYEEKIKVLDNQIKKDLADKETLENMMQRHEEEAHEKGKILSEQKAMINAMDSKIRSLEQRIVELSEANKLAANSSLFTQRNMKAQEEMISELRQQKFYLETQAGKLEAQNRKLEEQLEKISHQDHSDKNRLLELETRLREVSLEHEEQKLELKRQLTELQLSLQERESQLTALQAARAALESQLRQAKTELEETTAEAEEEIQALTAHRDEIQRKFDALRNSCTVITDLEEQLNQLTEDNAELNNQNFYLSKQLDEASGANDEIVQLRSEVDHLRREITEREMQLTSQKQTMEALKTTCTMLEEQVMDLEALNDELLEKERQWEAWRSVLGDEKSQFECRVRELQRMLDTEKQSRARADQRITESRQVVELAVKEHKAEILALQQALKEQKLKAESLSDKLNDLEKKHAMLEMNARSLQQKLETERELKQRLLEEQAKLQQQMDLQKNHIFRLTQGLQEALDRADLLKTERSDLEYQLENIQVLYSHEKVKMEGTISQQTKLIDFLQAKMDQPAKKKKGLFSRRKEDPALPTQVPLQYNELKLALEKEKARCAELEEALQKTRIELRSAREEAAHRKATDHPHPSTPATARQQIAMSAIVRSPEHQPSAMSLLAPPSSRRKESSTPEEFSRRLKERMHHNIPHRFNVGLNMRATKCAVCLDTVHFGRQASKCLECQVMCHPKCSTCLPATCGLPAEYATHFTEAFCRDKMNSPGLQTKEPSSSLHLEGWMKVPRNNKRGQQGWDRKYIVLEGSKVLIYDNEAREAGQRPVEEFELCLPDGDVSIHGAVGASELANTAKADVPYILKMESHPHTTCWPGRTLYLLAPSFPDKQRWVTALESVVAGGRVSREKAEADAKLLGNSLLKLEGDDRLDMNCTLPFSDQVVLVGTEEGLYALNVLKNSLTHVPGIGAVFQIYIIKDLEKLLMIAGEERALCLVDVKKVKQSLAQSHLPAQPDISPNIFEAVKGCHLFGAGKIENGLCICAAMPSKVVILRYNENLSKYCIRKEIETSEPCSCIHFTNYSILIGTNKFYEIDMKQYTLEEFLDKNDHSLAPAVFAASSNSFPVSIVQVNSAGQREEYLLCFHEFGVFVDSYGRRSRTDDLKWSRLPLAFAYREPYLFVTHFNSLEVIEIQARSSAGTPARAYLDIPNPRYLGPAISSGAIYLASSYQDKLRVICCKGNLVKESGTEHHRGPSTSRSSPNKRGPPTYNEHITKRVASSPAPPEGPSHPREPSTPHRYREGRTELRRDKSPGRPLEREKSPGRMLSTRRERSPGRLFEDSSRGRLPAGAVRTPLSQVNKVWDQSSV
Description: In-cell Kd values were evaluated with a NanoBRET Target Engagement Assay essentially as recommended by the manufacturer (Promega Corporation—for details see https://www.promega.com/resources/technologies/nanoluc-luciferase-enzyme/cellular-target-engagement/).
HEK293T cells were transfected with 5.0 μg/mL sterile NanoLuc-CITK DNA, 5.0 μg/mL Transfection Carrier DNA, and 30 μL/mL FugeneHD® (Promega) in Opti-Mem™ (Thermo) media at a cell density of 250,000 cells/mL. […] 5 μL of the 25× Tracer K10 solution was added to each well. Next, designated inhibitors were prepared from powder as 10 mM DMSO stocks and then further diluted to 10× the final assay concentration in Opti-Mem™. 12-pt dose-response curves were prepared by 3×-serial dilution. […] A 3× Complete Substrate+Inhibitor solution, containing 6 mL of Opti-Mem™, 36 μL of NanoBRET Nano-Glo Substrate, and 12 μL Extracellular NanoLuc Inhibitor was freshly prepared for each plate. 50 μL of the 3× Complete Substrate+Inhibitor solution was added to all wells and the plate was incubated for 2 min with 500 RPM shaking. The bottom of the plates were covered with black plate seals and then measured on a Cytation 5 plate reader (Biotek) with a NanoBRET Filter Cube (Biotek; 450/50 emission & 610LP emission). Background corrected BRET ratios (in mBU) were calculated in Excel and IC50's were subsequently extracted using four-parameter non-linear regression in GraphPad Prism 8.

[4] = biological target: Blk(h) (Homo sapiens (Human), UniProt P51451); assay: KinaseProfiler panel; type: biochemical; design: dose or concentration left out as unconfirmed; details: activity remaining
Chain of Blk(h) (P51451 whole entry): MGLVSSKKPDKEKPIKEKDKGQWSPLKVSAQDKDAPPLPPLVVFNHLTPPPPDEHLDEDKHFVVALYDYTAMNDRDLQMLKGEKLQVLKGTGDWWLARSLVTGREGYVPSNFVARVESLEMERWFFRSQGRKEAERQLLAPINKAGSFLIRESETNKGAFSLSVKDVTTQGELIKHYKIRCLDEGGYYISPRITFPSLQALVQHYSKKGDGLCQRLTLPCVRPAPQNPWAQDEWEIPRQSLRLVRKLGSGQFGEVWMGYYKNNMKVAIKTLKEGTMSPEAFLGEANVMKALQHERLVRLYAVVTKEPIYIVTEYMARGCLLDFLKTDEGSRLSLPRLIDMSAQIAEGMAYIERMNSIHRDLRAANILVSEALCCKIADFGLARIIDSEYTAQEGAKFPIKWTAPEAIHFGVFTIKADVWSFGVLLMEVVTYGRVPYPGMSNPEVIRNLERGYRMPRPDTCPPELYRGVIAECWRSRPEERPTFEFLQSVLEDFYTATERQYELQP

[5] = biological target: CDK12/cyclinK(h) (Homo sapiens (Human), UniProt Q9NYV4); assay: KinaseProfiler panel; type: biochemical; design: dose or concentration left out as unconfirmed; details: activity remaining
[6] = biological target: CDKL4(h) (Homo sapiens (Human), UniProt Q5MAI5); assay: KinaseProfiler panel; type: biochemical; design: dose or concentration left out as unconfirmed; details: activity remaining
[7] = biological target: CLK1(h) (Homo sapiens (Human), UniProt P49759); assay: KinaseProfiler panel; type: biochemical; design: dose or concentration left out as unconfirmed; details: activity remaining
[8] = biological target: Flt4(h) (Homo sapiens (Human), UniProt P35916); assay: KinaseProfiler panel; type: biochemical; design: dose or concentration left out as unconfirmed; details: activity remaining
[9] = biological target: Haspin(h) (Homo sapiens (Human), UniProt Q8TF76); assay: KinaseProfiler panel; type: biochemical; design: dose or concentration left out as unconfirmed; details: activity remaining
[10] = biological target: MYLK2(h) (Homo sapiens (Human), UniProt Q9H1R3); assay: KinaseProfiler panel; type: biochemical; design: dose or concentration left out as unconfirmed; details: activity remaining
[11] = biological target: NDR1(h) (Homo sapiens (Human), UniProt Q15208); assay: KinaseProfiler panel; type: biochemical; design: dose or concentration left out as unconfirmed; details: activity remaining
[12] = biological target: PKCη(h) (Homo sapiens (Human), UniProt P24723); assay: KinaseProfiler panel; type: biochemical; design: dose or concentration left out as unconfirmed; details: activity remaining
[13] = biological target: Plk4(h) (Homo sapiens (Human), UniProt O00444); assay: KinaseProfiler panel; type: biochemical; design: dose or concentration left out as unconfirmed; details: activity remaining
[14] = biological target: PTK5(h) (Homo sapiens (Human), UniProt P42685); assay: KinaseProfiler panel; type: biochemical; design: dose or concentration left out as unconfirmed; details: activity remaining
[15] = biological target: Rsk1(h) (Homo sapiens (Human), UniProt Q15418); assay: KinaseProfiler panel; type: biochemical; design: dose or concentration left out as unconfirmed; details: activity remaining
[16] = biological target: SGK(h) (Homo sapiens (Human), UniProt O00141); assay: KinaseProfiler panel; type: biochemical; design: dose or concentration left out as unconfirmed; details: activity remaining
Chain of SGK(h) (O00141 whole entry): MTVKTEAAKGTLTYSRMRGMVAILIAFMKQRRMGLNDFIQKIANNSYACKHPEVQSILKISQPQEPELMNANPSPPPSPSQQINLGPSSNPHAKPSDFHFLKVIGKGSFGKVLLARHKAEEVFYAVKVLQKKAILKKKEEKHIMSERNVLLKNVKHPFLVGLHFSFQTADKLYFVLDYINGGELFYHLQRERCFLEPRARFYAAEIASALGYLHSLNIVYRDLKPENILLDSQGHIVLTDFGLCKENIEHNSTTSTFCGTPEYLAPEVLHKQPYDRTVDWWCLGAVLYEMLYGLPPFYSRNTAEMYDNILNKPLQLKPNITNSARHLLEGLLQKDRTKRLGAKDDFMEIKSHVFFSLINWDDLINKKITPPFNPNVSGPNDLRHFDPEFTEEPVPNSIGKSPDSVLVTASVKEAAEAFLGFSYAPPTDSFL

[17] = biological target: SRMS(h) (Homo sapiens (Human), UniProt Q9H3Y6); assay: KinaseProfiler panel; type: biochemical; design: dose or concentration left out as unconfirmed; details: activity remaining
Chain of SRMS(h) (Q9H3Y6 whole entry): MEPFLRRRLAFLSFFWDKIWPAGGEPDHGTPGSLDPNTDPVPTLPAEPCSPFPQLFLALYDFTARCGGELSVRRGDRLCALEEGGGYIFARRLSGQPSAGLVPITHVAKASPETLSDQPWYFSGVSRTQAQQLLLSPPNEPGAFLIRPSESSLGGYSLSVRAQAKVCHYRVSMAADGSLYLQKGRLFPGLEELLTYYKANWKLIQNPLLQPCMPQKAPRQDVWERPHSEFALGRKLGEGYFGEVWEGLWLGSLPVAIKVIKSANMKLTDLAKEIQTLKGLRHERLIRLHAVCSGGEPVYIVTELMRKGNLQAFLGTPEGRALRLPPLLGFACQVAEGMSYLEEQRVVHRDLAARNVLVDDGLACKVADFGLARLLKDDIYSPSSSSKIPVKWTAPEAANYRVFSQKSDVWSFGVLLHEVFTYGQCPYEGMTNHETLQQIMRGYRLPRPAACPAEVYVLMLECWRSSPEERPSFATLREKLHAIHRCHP

[18] = biological target: STK33(h) (Homo sapiens (Human), UniProt Q9BYT3); assay: KinaseProfiler panel; type: biochemical; design: dose or concentration left out as unconfirmed; details: activity remaining
Chain of STK33(h) (Q9BYT3 whole entry): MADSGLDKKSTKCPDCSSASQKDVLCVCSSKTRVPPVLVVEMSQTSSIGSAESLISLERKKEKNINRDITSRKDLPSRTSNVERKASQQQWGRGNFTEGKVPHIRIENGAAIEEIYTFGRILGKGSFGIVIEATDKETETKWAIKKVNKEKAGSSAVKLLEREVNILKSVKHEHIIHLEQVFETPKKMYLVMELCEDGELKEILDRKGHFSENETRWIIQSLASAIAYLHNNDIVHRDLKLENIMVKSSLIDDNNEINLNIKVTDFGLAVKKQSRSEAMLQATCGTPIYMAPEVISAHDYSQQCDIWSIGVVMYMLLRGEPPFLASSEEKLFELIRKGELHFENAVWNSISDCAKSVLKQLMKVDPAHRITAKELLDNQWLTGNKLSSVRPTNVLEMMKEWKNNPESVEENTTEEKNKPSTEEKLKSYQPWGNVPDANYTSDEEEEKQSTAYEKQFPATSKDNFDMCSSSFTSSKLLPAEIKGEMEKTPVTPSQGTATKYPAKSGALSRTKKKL

[19] = biological target: ZAK(h) (Homo sapiens (Human), UniProt Q9NYL2); assay: KinaseProfiler panel; type: biochemical; design: dose or concentration left out as unconfirmed; details: activity remaining

Cc1cc2c(-c3ccc(NC(=O)[C@H](N)CC(C)(C)C)cc3C)ccnc2[nH]1 [Compound F-90, (2R)-2-Amino-4,4-dimethyl-N-[3-methyl-4-(2-methyl-1H-pyrrolo[2,3-b]pyridin-4-yl)phenyl]pentanamide]
IC50 [1]: 2280 nM
IC50 [2]: > 3 µM
Kd [3]: 9.9 nM
IC50 ([3]; HEK293T cells transfected with NanoLuc-CITK, Tracer K10 1 μM, 2 hours): 53 nM
% Activity [4]: 88%
% Activity [5]: 89%
% Activity [6]: 104%
% Activity [7]: 88%
% Activity [8]: 96%
% Activity [9]: 140%
% Activity [10]: 76%
% Activity [11]: 100%
% Activity [12]: 118%
% Activity [13]: 92%
% Activity [14]: 90%
% Activity [15]: 99%
% Activity [16]: 113%
% Activity [17]: 86%
% Activity [18]: 98%
% Activity [19]: 83%
